The values below come from patent publication US9827221B2, “Crystalline solids of a metAP-2 inhibitor and methods of making and using same” (Zafgen, Inc., priority 2010, dated 2017).

In general, solubility refers to the concentration that dissolves in the medium under given conditions.

Holding throughout (assay type): physicochemical
Data set [1] can be described thus: Solubility in solvent (e.g. aqueous solution that may include a buffer) with pH greater or equal to about 8.0. Conditions: pH 8, aqueous buffer, ca. 20° C.
Data set [2] is described as follows: Stability of the crystalline form to grinding (mortar and pestle; PLM, XRPD). The following applies: ca. 500 mg ground with mortar and pestle for approximately 5 minutes. As to the method: A sample (ca. 500 mg) from the scale-up of crystalline compound as in Example 2 was placed onto a mortar (Agate material, H: 35 mm, L: 77 mm). The sample was then ground using a pestle (length: 80 mm; grinding diameter: 17 mm) for approximately 5 minutes. Throughout the grinding procedure, the sample was allowed to stand for ca. 10 seconds intermittently to ensure that significant heat was not generated. PLM indicated birefrigent material with particle sizes measuring between about 20 μm and 80 μm in length.

Data set [3] is described as follows: Solubility in diisopropyl ether. Conditions: organic solvent or mixture.
Data set [4] can be described thus: Solid-form stability of Form C on storage (conversion to Form A). As to the method:
A sample of amorphous material of 6-O-(4-dimethylaminoethoxy)cinnamoyl fumagillol was exposed to vapors of neat trichloroethane at ambient temperature. The amorphous form readily deliquesced. The deliquesced sample was stored in a cold environment and evaporated to dryness using a Genevac centrifuge evaporator. The sample was then sealed, submerged in dry ice for ca. 15 minutes and stored in a freezer ([…]). The sample remained glassy during storage in the freezer (−20° C., 9 days), and was then stored at 5° C. (9 days), resulting in crystalline, Form C (see FIG. 13 for micrograph). A portion of the Form C sample was left at ambient temperature.

Converted amounts (≈) assume the structure as drawn.

Consider `CO[C@@H]1[C@H](OC(=O)/C=C/c2ccc(OCCN(C)C)cc2)CCC2(CO2)[C@H]1C1(C)OC1CC=C(C)C` (stereo partly shown) [Form A, 6-O-(4-dimethylaminoethoxy)cinnamoyl fumagillol], for which the figures for the solubility in data set [1], in data set [3] (50° C.) and in data set [3] (room temperature (ca. 20° C.)) were less than 0.2 mg/mL, approximately 102 mg/mL (≈ 204 mM) and approximately 25 mg/mL (≈ 50 mM), respectively. Moreover, in data set [2], the “crystallinity after grinding (XRPD)” value is “remained highly crystalline”.

With `CO[C@@H]1[C@H](OC(=O)/C=C/c2ccc(OCCN(C)C)cc2)CCC2(CO2)[C@H]1C1(C)OC1CC=C(C)C` (stereo partly shown) [Form C, 6-O-(4-dimethylaminoethoxy)cinnamoyl fumagillol], the “relative stability of the crystalline forms” value in data set [4] (Form C relative to Form A) was “metastable relative to Form A”. In addition, the “solid form conversion on storage” value in data set [4] (sample left at ambient temperature) and in data set [4] (sample stored at 5° C.) was “converted to Form A after three days” each time.
